Measurements as given in patent US8546376B2, “Pharmaceutical compounds” (Almac Discovery Limited, priority 2009, dated 2013).
Counter-ions that a name gives are not always drawn.

Columns and labels:
Type in all cases: biochemical
[1] = molecular target: T1, AKT1 (Homo sapiens, UniProt P31749); test: AKT Kinase Assay (IMAP fluorescent polarisation) vs AKT1; conditions: activated AKT1, FAM Crosstide substrate
T1 construct: purchased SignalChem
Summary of the method: (§1)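 IC50 values came from non-linear regression of % inhibition relative to vehicle, measured by IMAP fluorescence polarisation (485/528 nm) after a 1 h room-temperature reaction of FAM-Crosstide and ATP. Each activated isoform was first exposed to compound for 45 min across fourteen half-log doses.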

[2] = molecular target: T2, AKT2 (Homo sapiens, UniProt P31751); test: AKT Kinase Assay (IMAP fluorescent polarisation) vs AKT2; conditions: activated AKT2, FAM Crosstide substrate
T2 construct: purchased SignalChem
Summary of the method: as §1

[3] = molecular target: T3, AKT3 (Homo sapiens, UniProt Q9Y243); test: AKT Kinase Assay (IMAP fluorescent polarisation) vs AKT3; conditions: activated AKT3, FAM Crosstide substrate
T3 construct: purchased SignalChem
Summary of the method: as §1

T1 sequence (P31749 whole entry): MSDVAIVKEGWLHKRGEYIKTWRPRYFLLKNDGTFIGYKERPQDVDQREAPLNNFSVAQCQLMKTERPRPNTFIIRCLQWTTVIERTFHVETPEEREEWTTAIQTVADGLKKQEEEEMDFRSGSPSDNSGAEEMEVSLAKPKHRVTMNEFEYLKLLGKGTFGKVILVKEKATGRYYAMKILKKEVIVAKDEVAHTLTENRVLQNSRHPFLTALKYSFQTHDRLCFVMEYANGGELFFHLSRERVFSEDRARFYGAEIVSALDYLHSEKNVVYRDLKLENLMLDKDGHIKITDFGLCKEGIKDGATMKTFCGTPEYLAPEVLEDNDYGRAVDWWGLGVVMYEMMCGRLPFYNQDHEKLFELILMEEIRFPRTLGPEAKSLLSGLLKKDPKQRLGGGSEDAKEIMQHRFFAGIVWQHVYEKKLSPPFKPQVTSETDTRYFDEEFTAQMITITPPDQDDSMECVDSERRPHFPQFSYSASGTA
T2 sequence (P31751 whole entry): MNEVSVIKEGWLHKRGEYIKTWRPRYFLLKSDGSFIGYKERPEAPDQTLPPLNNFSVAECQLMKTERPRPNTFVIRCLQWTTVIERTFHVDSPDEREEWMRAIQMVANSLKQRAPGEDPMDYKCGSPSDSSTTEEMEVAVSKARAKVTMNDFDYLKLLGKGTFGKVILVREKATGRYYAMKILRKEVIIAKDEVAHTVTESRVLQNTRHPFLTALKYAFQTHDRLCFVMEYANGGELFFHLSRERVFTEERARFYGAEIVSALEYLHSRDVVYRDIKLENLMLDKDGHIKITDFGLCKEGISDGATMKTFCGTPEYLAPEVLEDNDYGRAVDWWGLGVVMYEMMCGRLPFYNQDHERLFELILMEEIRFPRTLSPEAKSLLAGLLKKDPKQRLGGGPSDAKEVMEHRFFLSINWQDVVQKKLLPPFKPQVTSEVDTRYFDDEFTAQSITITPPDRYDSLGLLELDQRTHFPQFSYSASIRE
T3 sequence (Q9Y243 whole entry): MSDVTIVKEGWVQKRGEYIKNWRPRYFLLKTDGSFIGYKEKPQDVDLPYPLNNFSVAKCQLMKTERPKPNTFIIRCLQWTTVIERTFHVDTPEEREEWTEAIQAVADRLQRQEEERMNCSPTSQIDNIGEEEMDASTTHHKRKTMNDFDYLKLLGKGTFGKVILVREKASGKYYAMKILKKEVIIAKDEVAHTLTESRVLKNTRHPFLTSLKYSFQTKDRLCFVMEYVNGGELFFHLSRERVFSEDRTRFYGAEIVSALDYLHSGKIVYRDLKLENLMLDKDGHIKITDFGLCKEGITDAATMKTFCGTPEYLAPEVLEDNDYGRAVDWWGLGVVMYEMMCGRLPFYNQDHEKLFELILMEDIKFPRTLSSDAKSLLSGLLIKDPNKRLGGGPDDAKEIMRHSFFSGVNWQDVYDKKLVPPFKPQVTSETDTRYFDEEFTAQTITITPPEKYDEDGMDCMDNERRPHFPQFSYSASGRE

Row | Compound | IC50 [1] | IC50 [2] | IC50 [3]
1 | NC1(c2ccc(-c3c(-c4ccccc4)oc4ccccc4c3=S)cc2)CCC1 [Example 65, 3-[4-(1-Amino-cyclobutyl)-phenyl]-2-phenyl-chromene-4-thione hydrochloride] | 1000 to 10000 nM | 1000 to 10000 nM | 1000 to 10000 nM
2 | NC1(c2ccc(-c3c(-c4ccccc4)oc4cccc(F)c4c3=O)cc2)CCC1 [Example 3, 3-[4-(1-Amino-cyclobutyl)-phenyl]-5-fluoro-2-phenyl-chromen-4-one] | 1000 to 10000 nM | 1000 to 10000 nM | > 10000 nM
3 | CS(=O)(=O)c1ccccc1-c1nccc2c(=O)c(-c3ccc(C4(N)CCC4)cc3)c(-c3ccccc3)oc12 [Example 119, 3-(4-(1-aminocyclobutyl)phenyl)-8-(2-(methylsulfonyl)phenyl)-2-phenyl-4H-pyrano[2,3-c]pyridin-4-one] | 1000 to 10000 nM | 1000 to 10000 nM | > 10000 nM
4 | COc1cccc2c(=O)c(-c3ccc(C4(N)CCC4)cc3)c(-c3ccccc3)oc12 [Example 16, 3-[4-(1-Amino-cyclobutyl)-phenyl]-8-methoxy-2-phenyl-chromen-4-one] | 1000 to 10000 nM | 1000 to 10000 nM | 1000 to 10000 nM
5 | NC1(c2ccc(-c3c(-c4ccccc4)oc4c(-c5cccnc5)nccc4c3=O)cc2)CCC1 [Example 123, 3-(4-(1-aminocyclobutyl)phenyl)-2-phenyl-8-(pyridin-3-yl)-4H-pyrano[2,3-c]pyridin-4-one hydrochloride] | ≤ 1000 nM | ≤ 1000 nM | 1000 to 10000 nM
6 | CC(C)n1ncc2ccc3c(=O)c(-c4ccc(C5(N)CCC5)cc4)c(-c4ccccc4)oc3c21 [Example 83, 7-[4-(1-Amino-cyclobutyl)-phenyl]-1-isopropyl-8-phenyl-1H-9-oxa-1,2-diaza-cyclopenta[a]naphthalen-6-one hydrochloride] | ≤ 1000 nM | ≤ 1000 nM | 1000 to 10000 nM
7 | Nc1ccc2c(=O)c(-c3ccc(C4(N)CCC4)cc3)c(-c3ccccc3)oc2c1 [Example 47, 7-Amino-3-[4-(1-amino-cyclobutyl)-phenyl]-2-phenyl-1-benzopyran-4-one.TFA] | 1000 to 10000 nM | 1000 to 10000 nM | > 10000 nM
8 | COc1ccc2c(=O)c(-c3ccc(C4(N)CCC4)cc3)c(-c3ccccc3)oc2c1C(N)=O [Example 50, 3-[4-(1-Amino-cyclobutyl)-phenyl]-7-methoxy-4-oxo-2-phenyl-4H-chromene-8-carboxylic acid amide hydrochloride] | ≤ 1000 nM | 1000 to 10000 nM | 1000 to 10000 nM
9 | CCn1ncc2ccc3c(=O)c(-c4ccc(C5(N)CCC5)cc4)c(-c4ccccc4)oc3c21 [Example 81, 7-[4-(1-Amino-cyclobutyl)-phenyl]-1-ethyl-8-phenyl-1H-9-oxa-1,2-diaza-cyclopenta[a]naphthalen-6-one hydrochloride] | ≤ 1000 nM | ≤ 1000 nM | 1000 to 10000 nM
10 | COc1cc2oc(-c3ccccc3)c(-c3ccc(C4(N)CCC4)cc3)c(=O)c2cc1Br [Example 27, 3-[4-(1-Amino-cyclobutyl)-phenyl]-6-bromo-7-methoxy-2-phenyl-chromen-4-one] | > 10000 nM | 1000 to 10000 nM | > 10000 nM
11 | CC(C)(C#N)c1ccc(-c2c(-c3ccccc3)oc3c(ccn4c(=O)[nH]nc34)c2=O)cc1 [Example 70, 2-[4-(3,6-Dioxo-8-phenyl-2,6-dihydro-3H-9-oxa-1,2,3a-triaza-cyclopenta[a]naphthalen-7-yl)-phenyl]-2-methyl-propionitrile] | ≤ 1000 nM | > 10000 nM | > 10000 nM
12 | COc1ccc2c(=O)c(-c3ccc(C4(N)CCC4)cc3)c(-c3ccccc3)oc2n1 [Example 35, 3-[4-(1-Amino-cyclobutyl)-phenyl]-7-methoxy-2-phenyl-pyrano[2,3-b]pyridin-4-one hydrochloride] | 1000 to 10000 nM | 1000 to 10000 nM | 1000 to 10000 nM
13 | CC(C)Cn1cc(-c2nccc3c(=O)c(-c4ccc(C5(N)CCC5)cc4)c(-c4ccccc4)oc23)cn1 [Example 117, 3-(4-(1-aminocyclobutyl)phenyl)-8-(1-isobutyl-1H-pyrazol-4-0)-2-phenyl-4H-pyrano[2,3-c]pyridin-4-one] | ≤ 1000 nM | ≤ 1000 nM | 1000 to 10000 nM
14 | COc1ccc2c(=O)c(-c3ccc(C4(N)CCC4)cc3)c(-c3ccccc3)oc2c1-c1cn[nH]c1 [Example 79, 3-[4-(1-Amino-cyclobutyl)-phenyl]-7-methoxy-2-phenyl-8-(1H-pyrazol-4-yl)-chromen-4-one] | ≤ 1000 nM | ≤ 1000 nM | ≤ 1000 nM
15 | COc1ccc2c(=O)c(-c3ccc(C4(N)CCC4)cc3)c(-c3ccccc3)oc2c1 [Example 14] | 1000 to 10000 nM | 1000 to 10000 nM | > 10000 nM

Next, values leading:

Row | IC50 [1] | IC50 [2] | IC50 [3] | Compound
16 | ≤ 1000 nM | ≤ 1000 nM | > 10000 nM | NC1(c2ccc(-c3c(-c4ccccc4)oc4c(ccc5[nH]c(=O)[nH]c54)c3=O)cc2)CCC1 [Example 87, 7-[4-(1-Amino-cyclobutyl)-phenyl]-8-phenyl-1,3-dihydro-chromeno[7,8-d]imidazole-2,6-dione]
17 | ≤ 1000 nM | 1000 to 10000 nM | 1000 to 10000 nM | NC1(c2ccc(-c3c(-c4ccccc4)oc4c(ccc5c(Cl)n[nH]c54)c3=O)cc2)CCC1 [Example 99, 7-[4-(1-Amino-cyclobutyl)-phenyl]-3-chloro-8-phenyl-1H-9-oxa-1,2-diaza-cyclopenta[a]naphthalen-6-one hydrochloride]
18 | ≤ 1000 nM | ≤ 1000 nM | 1000 to 10000 nM | NC1(c2ccc(-c3c(-c4ccccc4)oc4c(ccc5cn[nH]c54)c3=O)cc2)CCC1 [Example 57, 7-[4-(1-Amino-cyclobutyl)-phenyl]-8-phenyl-1H-9-oxa-1,2-diaza-cyclopenta[a]naphthalen-6-one]
19 | ≤ 1000 nM | ≤ 1000 nM | 1000 to 10000 nM | NC1(c2ccc(-c3c(-c4ccccc4)oc4c(Cl)nccc4c3=O)cc2)CCC1 [Example 42, 3-[4-(1-Amino-cyclobutyl)-phenyl]-8-chloro-2-phenyl-pyrano[2,3-c]pyridin-4-one hydrochloride]
20 | ≤ 1000 nM | ≤ 1000 nM | 1000 to 10000 nM | NC1(c2ccc(-c3c(-c4ccccc4)oc4c(CCCl)nccc4c3=O)cc2)CCC1 [Example 129, 3-(4-(1-aminocyclobutyl)phenyl)-8-(2-chloroethyl)-2-phenyl-4H-pyrano[2,3-c]pyridin-4-one]
21 | ≤ 1000 nM | ≤ 1000 nM | ≤ 1000 nM | NC1(c2ccc(-c3c(-c4ccccc4)oc4c(-c5cn[nH]c5)nccc4c3=O)cc2)CCC1 [Example 80, 3-[4-(1-Amino-cyclobutyl)-phenyl]-2-phenyl-8-(1H-pyrazol-4-yl)-pyrano[2,3-c]pyridin-4-one hydrochloride]
22 | ≤ 1000 nM | 1000 to 10000 nM | 1000 to 10000 nM | N#CCn1ncc2ccc3c(=O)c(-c4ccc(C5(N)CCC5)cc4)c(-c4ccccc4)oc3c21 [Example 111, 2-(7-(4-(1-aminocyclobutyl)phenyl)-6-oxo-8-phenylpyrano[3,2-g]indazol-1(6H)-v1)acetonitrile]
23 | ≤ 1000 nM | 1000 to 10000 nM | > 10000 nM | NC1(c2ccc(-c3c(-c4ccccc4)oc4c(-n5ccnc5)nccc4c3=O)cc2)CCC1 [Example 114, 3-(4-(1-aminocyclobutyl)phenyl)-8-(1H-imidazol-1-yl)-2-phenyl-4H-pyrano[2,3-c]pyridin-4-one]
